The source of these data is patent US4621057A (Noda Institute for Scientific Research, priority 1983, dated 1986).

Structures can show the parent of a compound that is named as a salt.

Common to all, as to assay type: biochemical, Pseudomonas sp. No. 15-1
Data set [1] relates to N-acetylhexosamine oxidase. As to the kind of experiment: Activity inhibition by metalic ion or inhibitor. Conditions: for inhibition of enzyme activity (in words): 1.8mM metalic ion.
Data set [2] has as its system N-acetylhexosamine oxidase. Kind of data set: Action and specificity for substrate. Conditions: in the presence of oxygen. The source says:
As shown in the following reaction formula, the present enzyme oxidizes N-acetylhexosamine in the presence of oxygen to form N-acetylhexosaminic acid and hydrogen peroxide.

For data set [3], the system named is N-acetylhexosamine oxidase. As to the kind of experiment: Activity stabilization by bovine serum albumin in heat treatment. Conditions: 1 mg/ml in potassium phosphate buffer solution of pH 6.8; 10 minutes heat treatment.
Description: Further, in 10 minutes heat treatment at 45° C., the present enzyme is stable between pH 3 and pH 9 and loses its activity rapidly at a more acidic region and slowly at a more alkaline region. In this experiment, the hydrogen peroxide method was adopted, and the residual activity of the present enzyme subjected to 10 minutes heat treatment in a potassium phosphate buffer solution of pH 6.8 at each temperature was compared with the residual activity of the same enzyme subjected to the same treatment in a potassium phosphate buffer solution of pH 6.8 containing 1 mg/ml of bovine serum albumin.
The mark [4] stands for this setting: 1.8mM metalic ion or inhibitor, tris-hydrochloric acid buffer solution of pH 7.5.
Where [5] appears, read: tris-hydrochloric acid buffer solution of pH 7.5.

`O=[N+]([O-])[O-].[Ag+]` [AgNO3]: the “Residual activity (%)” value in data set [1] (1.8mM, Phosphate buffer solution) is listed as 5%.

Take `[Ca+2].[Cl-].[Cl-]` [CaCl2]: the “Residual activity (%)” value in data set [1] (setting [4]) was 91%. In the case of `O=S(=O)([O-])[O-].[Cd+2]` [CdSO4], in data set [1] (setting [4]), the “Residual activity (%)” value is recorded as 52%. In addition, in data set [1] (setting [5]), the “inhibition of enzyme activity (in words)” value is given as “considerably”. In the case of `O=S(=O)([O-])[O-].[Co+2]` [CoSO4], the “Residual activity (%)” value in data set [1] (setting [4]) is on record as 75%. As to `O=S(=O)([O-])[O-].[Cu+2]` [CuSO4], in data set [1] (setting [4]), the “Residual activity (%)” value was 74%.

As to `O=C(O)CN(CCN(CC(=O)O)CC(=O)O)CC(=O)O` [EDTA, Etheylenediaminetetracetic acid sodium salt], in data set [1] (pH 7.5), the “Residual activity (%)” value amounted to 87%. For the compound `O=S(=O)([O-])[O-].[Fe+2]` [FeSO4], the “Residual activity (%)” value in data set [1] (setting [4]) turned out to be 15%. In addition, the “inhibition of enzyme activity (in words)” value in data set [1] (setting [5]) is given as “inhibited greatly”. With `NC(=O)CI` [ICH2 CONH2], in data set [1] (setting [4]), the “Residual activity (%)” value stood at 90%. For `O=S(=O)([O-])[O-].[Mg+2]` [MgSO4], the “Residual activity (%)” value in data set [1] (setting [4]) is 86%. Take `O=S(=O)([O-])[O-].[Mn+2]` [MnSO4]: the “Residual activity (%)” value in data set [1] (setting [4]) is on record as 84%. As for `CC(=O)N[C@H]1[C@H]([C@H](O)[C@H](O)CO)OC(O)(C(=O)O)C[C@@H]1O` (stereo partly shown) [N-acetylneuraminic acid], the “action of the enzyme on the substrate” value in data set [2] is “hardly acts or does not all act”. As to `O=S(=O)([O-])[O-].[Ni+2]` [NiSO4], the “Residual activity (%)” value in data set [1] (setting [4]) is on record as 64%. Moreover, the “inhibition of enzyme activity (in words)” value in data set [1] (setting [5]) is on record as “considerably”. `c1cnc2c(c1)ccc1cccnc12` [O'--Phenanthroline]: the “Residual activity (%)” value in data set [1] (setting [4]) is 81%.

For the compound `O=C(O)c1cc[c]([Hg][Cl])cc1` [PCMB, pChloromercurybenzoate], the “Residual activity (%)” value in data set [1] (setting [4]) amounted to 67%. For the compound `CC(=O)[O-].CC(=O)[O-].[Pb+2]` [Pb(CH3 COO)2], in data set [1] (setting [4]), the “Residual activity (%)” value was 42%. In addition, in data set [1] (setting [5]), the “inhibition of enzyme activity (in words)” value is “considerably”. `CCCCCCCCCCCCOS(=O)(=O)[O-].[Na+]` [SDS, Sodium dodecylsulfate]: the “Residual activity (%)” value in data set [1] (setting [4]) stood at 87%. Regarding `O=S(=O)([O-])[O-].[Zn+2]` [ZnSO4], in data set [1] (setting [4]), the “Residual activity (%)” value stood at 2%. Further, in data set [1] (setting [5]), the “inhibition of enzyme activity (in words)” value is listed as “inhibited greatly”. HgCl2: the “Residual activity (%)” value in data set [1] (setting [4]) came out at 17%. Besides, the “inhibition of enzyme activity (in words)” value in data set [1] (setting [5]) is reported as “inhibited greatly”.

As to bovine serum albumin, in data set [3], the “effect of addition on enzyme activity” value was “stabilized and moreover slightly enhanced”.
